What was measured:
[1] = tested on: Guinea pigs (Hartley); test: Test Example 3-2: electrocardiogram and aortic pressure of halothane-anesthetized guinea pigs (BAF312); assay type: in vivo; settings: guinea pig
Method: Guinea pigs (Hartley, body weight: 420 g to 650 g, male, obtained from Japan SLC, Inc.) were each anesthetized by intraperitoneally administering thereto sodium thiopental (product of Mitsubishi Tanabe Pharma Corporation) at 50 mg/kg. Next, a tracheal cannula was inserted into each of the guinea pigs. While their body temperature was being maintained at 37° C. with a warming pad, the guinea pigs were allowed to inhale 100% by volume oxygen and 1% by volume vaporized halothane (product of Takeda Pharmaceutical Company Limited.) using an artificial respirator for experimental animals (SN-480-7; product of shimano Co., Ltd.). Here, the artificial respirator for experimental animals was set to a tidal volume of 10 mL/kg and a respiration rate of 60 strokes/min. Next, a cannula for drug administration was inserted to their left femoral vein. In addition, a heparinized catheter for monitoring the blood pressure was inserted to the aorta through the left femoral […]. Then, ECG standard limb II leads was continuously recorded.
Each of the guinea pigs (n=12) of Example 3 was recorded for an electrocardiogram before administration of a drug or a solvent.
BAF312 (product of Meiji Seika Pharma Co., Ltd.) was dissolved in dimethyl sulfoxide (hereinafter may be referred to as “DMSO”; product of Sigma-Aldrich Inc.) so as to have a concentration of 0.003 mg/mL.
(§1) After the evaluation of base control, the cannula for drug administration was inserted, and the above-prepared BAF312 solution was intravenously administered to each of the guinea pigs (n=4) of Example 3 for 10 min at a dose of 0.001 mg/kg. These guinea pigs were evaluated for parameters by the following evaluation methods at 5 min, 10 min, 15 min, 20 min, 30 min, 45 min or 60 min after the administration of the BAF312 solution.
BAF312 (product of Meiji Seika Pharma Co., Ltd.) was dissolved in DMSO (product of Sigma-Aldrich Inc.) so as to have a concentration of 0.03 mg/mL.
as §1, with “0.01” for “0.001”
The aortic pressure and the electrocardiogram were monitored using a polygraph system (RM-6000, product of NIHON KOHDEN Co. Ltd.) and analyzed with a full-automated analysis system in real time (WinVAS ver. 3, 1.1R03; product of Physio-Tech Co., Ltd).
Parameters of the electrocardiogram were measured three times, and the obtained values were averaged. Atrial rate was calculated from PP interval of the electrocardiogram. Ventricular rate was calculated from RR interval of the electrocardiogram.
The measurements in FIGS. 6A to 6E are expressed as mean±SE (n=4). The difference between the parameters was evaluated with one-way repeated measures analysis of variance (ANOVA). It was considered that p<0.05 is statistically significant. In FIG. 6A to 6C and FIG. 6E, “white circle,” “white square” and “white triangle” each mean absence of a significant difference relative to the value of the evaluation of base control (C), and “black circle” means presence of a significant difference relative to the value of the evaluation of base control (C).
Also, in FIG. 6D, “white circle” means absence of development of atrioventricular block or presence of development of first-degree atrioventricular block, “white triangle” means presence of development of advanced atrioventricular block, “x-mark” means presence of development of third-degree atrioventricular block (complete atrioventricular block), and #1 to 4 refer to each individual.

[2] = tested on: rat; settings: cited from earlier work
[3] = high-dose 0.01 mg/kg/10 min i.v.
[4] = low-dose 0.001 mg/kg/10 min i.v.
[5] = low-dose 0.001 mg/kg/10 min i.v., from 5 min to 60 min

Structure (SMILES) | change in QRS width [1, 3] | change in QT interval [1, 3] | change in atrial rate [1, 3] | change in blood pressure (MBP) [1, 3] | correspondence of P wave and R wave in the electrocardiogram ([1]; high-dose 0.01 mg/kg/10 min i.v., 45 min after start) | change in PR interval ([1]; high-dose 0.01 mg/kg/10 min i.v., before development of atrioventricular block) | change in ventricular rate ([1]; high-dose 0.01 mg/kg/10 min i.v., from 10 min to 15 min) | individuals that developed complete atrioventricular block ([1]; high-dose 0.01 mg/kg/10 min i.v., n=4) | change in PR interval [1, 4] | change in QRS width [1, 4] | change in QT interval [1, 4] | change in blood pressure (MBP) [1, 4] | change in atrial rate [1, 5] | change in ventricular rate [1, 5] | prolongation of PR interval [2]
CCc1cc(/C(C)=N/OCc2ccc(C3CCCCC3)c(C(F)(F)F)c2)ccc1CN1CC(C(=O)O)C1 [BAF312, siponimod] | no significant change | no significant change | no significant change | increase | the atrium and the ventricle are contracted independently of each other at their own individual rhythms | prolonged | decrease | all of the four individuals | prolongation of PR interval was observed | no significant change | no significant change | increase | decrease | decrease | 
CCCCCCCCCCCCC/C=C/[C@@H](O)[C@@H](N)COP(=O)(O)O [sphingosine-1-phosphate] |  |  |  |  |  |  |  |  |  |  |  |  |  |  | not observed
